# Earlier results as cited in patent publication US20140213664A1, “PROCESSES, PRODUCTS AND METHODOLOGIES FOR MAKING AND USING NOVEL BIOADVANTAGED SWEETENERS” (priority 2013, published 2014).
# Key:
# [1] = system: STZ-induced diabetic rats
# [2] = injected hypodermically
SMILES,HDL-cholesterol [1],antihyperglycemic effect [1],total cholesterol and triglyceride levels [1],glycosuria [2]
O=CC=Cc1ccccc1 [Cinnamaldehyde],increasing,significant antihyperglycemic effect,lowering,–
O=C(CCc1ccc(O)cc1)c1c(O)cc(O)cc1O[C@@H]1O[C@H](CO)[C@@H](O)[C@H](O)[C@H]1O [Phlorizin],–,–,–,produces glycosuria
